Results from patent publication EP0603240B1, “SAFENING HERBICIDAL PYRAZOLYLSULFONYLUREAS” (priority 1991, dated 1993).

Key:
Format in all cases: in vivo
corn [1] = experiment: Example 19, Procedure II: Herbicide No. 1 + ERADICANE EXTRA with added antidotes
Method in brief: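 Corn seeded in silt loam, covered with soil incorporating herbicide plus antidote (from acetone); EPTC given as ERADICANE EXTRA (with R-29148 and dietholate). Initial overhead irrigation equal to 0.6 cm rain, then greenhouse sub-irrigation. Percent injury scored; efficacy is injury without antidote minus injury with it.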

[2] = test system: velvetleaf (Abutilon theophrasti); experiment: Example 10, Procedure II: Herbicide No. 1 + propachlor (No. 5) with antidotes
Method in brief: (§1)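 Herbicide No. 1 plus propachlor and antidote, each in acetone, incorporated into silt loam cover soil over seeded corn/weed beds; untreated and herbicide-only controls included. Initial overhead irrigation equal to 0.6 cm rainfall, then greenhouse sub-irrigation. Response scored as percent injury; safening taken as injury difference without versus with antidote.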

[3] = test system: barnyardgrass (Echinochloa crusgalli); experiment: as above
Method in brief: as §1

corn [4] = experiment: Example 22: retest of Example 21 at reduced greenhouse temperatures; conditions: Table 22
Procedure: (§2) Containers were filled and compacted with a fumigated silt loam top soil to a depth of about 1.3 cm from the top of the container. A first container was designated as an untreated control, a second container was designated as a herbicide control, and a third container was designated as a herbicide + antidote test container. Each of the containers was seeded with a crop species. A measured amount of herbicide dispersed or dissolved in acetone was applied to a measured quantity of soil. To this same quantity of soil treated with herbicide, there was added a measured amount of antidote dispersed or dissolved in acetone. The quantity of soil treated with the herbicide and antidote was thoroughly mixed to incorporate the herbicide and antidote in the soil uniformly. The seed bed in the third container of soil was covered with the soil treated with the herbicide and antidote and the container was leveled. For each test series, the seed beds of the first and second containers were likewise covered by soil layers. the cover layer of the first container was not treated with herbicide or antidote.
(§3) The containers were then placed on a bench in a greenhouse and sub-irrigated as required for the duration of the test. […] Plant response is measured in terms of percent injury. Antidote efficacy is indicated as the difference in plant injury by the herbicide(s) without the antidote and with the antidote.
(§4) This procedure is the same as Procedure I, but modified in the manner that after incorporation of the chemicals (herbicide and antidote) the containers with the covered seedbed were treated with an initial overhead irrigation equivalent to 0.6 cm rainfall, then subsequently sub-irrigated as required on greenhouse benches.
(§5) In this example, tests were conducted as in the preceding Examples 18-20, except here the co-herbicidal component was SUTAN® PLUS, a commercial product comprising as the active herbicidal ingredient the compound butylate (Herbicide No. 10) and an antidote […] (Antidote No. 1). Again, the antidotal compounds herein were Nos. 1, 2, 7, 13 and 15. Procedure II was used.
(§6) The experiments in this example were designed as a retest of those described in Example 21 in view of the uncharacteristically poor corn safety and weed control, believed to have resulted from unseasonably high temperatures in the greenhouse. Accordingly, temperatures were reduced for these tests.

corn [5] = experiment: Example 6, Procedure II: Herbicide No. 1 + alachlor (No. 7) with antidotes
Method in brief: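 Herbicide No. 1 plus alachlor and antidote, each applied in acetone, mixed into silt loam cover soil over seeded corn; untreated and herbicide-only controls included. Given initial overhead irrigation equal to 0.6 cm rainfall, then greenhouse sub-irrigation. Percent injury scored, duplicate averages; efficacy is injury without minus with antidote.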

[6] = test system: velvetleaf (Abutilon theophrasti); experiment: Example 18, Procedure II: Herbicide No. 1 + ERADICANE (EPTC + R-25788) with auxiliary antidotes
Procedure: as §2, §3, §4
(§7) In the series of greenhouse tests described below, for routine screening purposes the herbicide/antidote compositions were tested in crop/weed combinations involving corn as the crop and either or both of the weeds barnyardgrass (Echinochloa crusgalli), a monocotyledonous weed, and velvetleaf (Abutilon theophrasti), a dicotyledonous weed. In the tables below, these weeds are indicated by the symbols "BYG" and "VL", respectively.
(§8) In the test reported in this example, the herbicidal composition was similar to that used in Example 16 in that Herbicide No. 1 was combined with EPTC (Herbicide No. 4) as a co-herbicide and the antidotes included Nos. 1, 2, 7, 13 and 15. However, in this test the EPTC was introduced as a formulation of ERADICANE (EPTC + the antidote R-25788, i.e., Antidote No. 1) at an application rate of 8.96 kg/ha. Thus, in this test two antidotes were present, viz. R-25788 and one of the auxilliary antidotes, No. 2, 13 and 15.
(§9) Test procedures were those of Procedure II above.

[7] = test system: barnyardgrass (Echinochloa crusgalli); experiment: as above
Procedure: as §2, §3, §4, §7, §8, §9

[8] = test system: velvetleaf (Abutilon theophrasti); experiment: Example 22: retest of Example 21 at reduced greenhouse temperatures; conditions: Table 22
Procedure: as §2, §3, §4, §7, §5, §6

[9] = test system: barnyardgrass (Echinochloa crusgalli); experiment: as above; conditions: Table 22
Procedure: as §2, §3, §4, §7, §5, §6

[10] = test system: barnyardgrass (Echinochloa crusgalli); experiment: Example 7, Procedure II: Herbicide No. 1 + metolachlor (No. 12) with antidotes
Method in brief: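 Herbicide and antidote in acetone were mixed into silt loam soil used to cover seeded beds, followed by 0.6 cm overhead irrigation, then sub-irrigation in the greenhouse. Percent injury was scored against herbicide-alone and untreated controls, averaged over duplicates. Herbicide No. 1 was combined with metolachlor.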

[11] = Herbicide No.1 0.14 kg/ha + Herbicide No.5 4.48 kg/ha, antidote rate 2.24 kg/ha
[12] = Herbicide No.1 0.14 kg/ha + Herbicide No.5 4.48 kg/ha, antidote rate 8.96 kg/ha
[13] = Herbicide No.1 0.56 kg/ha + Herbicide No.5 4.48 kg/ha, antidote rate 2.24 kg/ha
[14] = Herbicide No.1 0.56 kg/ha + Herbicide No.5 4.48 kg/ha, antidote rate 8.96 kg/ha
[15] = Herbicide No.1 0.56 Kg/ha + SUTAN + 8.96 Kg/ha + antidote 2.24 Kg/ha
[16] = Herbicide No.1 0.56 Kg/ha + SUTAN + 8.96 Kg/ha + antidote 8.96 Kg/ha
[17] = Herbicide No.1 1.12 Kg/ha + SUTAN + 8.96 Kg/ha + antidote 2.24 Kg/ha
[18] = Herbicide No.1 1.12 Kg/ha + SUTAN + 8.96 Kg/ha + antidote 8.96 Kg/ha
[19] = Herbicide No.1 0.56 kg/ha + ERADICANE 8.96 kg/ha, antidote 2.24 kg/ha
[20] = Herbicide No.1 0.56 kg/ha + ERADICANE 8.96 kg/ha, antidote 8.96 kg/ha
[21] = Herbicide No.1 1.12 kg/ha + ERADICANE 8.96 kg/ha, antidote 2.24 kg/ha
[22] = Herbicide No.1 1.12 kg/ha + ERADICANE 8.96 kg/ha, antidote 8.96 kg/ha

Compound: CC1(C)OC(c2ccco2)CN1C(=O)C(Cl)Cl (stereo not shown) [compound 15]
- % Injury Corn (corn [1]; Herbicide No.1 0.56 kg/ha + ERADICANE EXTRA 8.96 kg/ha, antidote 2.24 kg/ha): 20%
- % Injury Corn (corn [1]; Herbicide No.1 0.56 kg/ha + ERADICANE EXTRA 8.96 kg/ha, antidote 8.96 kg/ha): 30%
- % Injury Corn (corn [1]; Herbicide No.1 1.12 kg/ha + ERADICANE EXTRA 8.96 kg/ha, antidote 2.24 kg/ha): 25%
- % Injury Corn (corn [1]; Herbicide No.1 1.12 kg/ha + ERADICANE EXTRA 8.96 kg/ha, antidote 8.96 kg/ha): 25%
- % Injury VL [2, 11]: 70%
- % Injury VL [2, 12]: 80%
- % Injury VL [2, 13]: 80%
- % Injury VL [2, 14]: 75%
- % Injury BYG [3, 11]: 98%
- % Injury BYG [3, 12]: 90%
- % Injury BYG [3, 13]: 93%
- % Injury BYG [3, 14]: 85%
- % Injury Corn (corn [4]; [15]): 45%
- % Injury Corn (corn [4]; [16]): 55%
- % Injury Corn (corn [4]; [17]): 60%
- % Injury Corn (corn [4]; [18]): 45%
- % Injury Corn (corn [5]; Herbicide No.1 0.14 + No.7 4.48 kg/ha + antidote 2.24 kg/ha): 20%
- % Injury Corn (corn [5]; Herbicide No.1 0.14 + No.7 4.48 kg/ha + antidote 8.96 kg/ha): 10%
- % Injury Corn (corn [5]; Herbicide No.1 0.56 + No.7 4.48 kg/ha + antidote 2.24 kg/ha): 15%
- % Injury Corn (corn [5]; Herbicide No.1 0.56 + No.7 4.48 kg/ha + antidote 8.96 kg/ha): 15%
- % Injury VL [6, 19]: 80%
- % Injury VL [6, 20]: 85%
- % Injury VL [6, 21]: 80%
- % Injury VL [6, 22]: 65%
- % Injury BYG [7, 19]: 90%
- % Injury BYG [7, 20]: 90%
- % Injury BYG [7, 21]: 93%
- % Injury BYG [7, 22]: 85%
- % Injury VL [8, 15]: 70%
- % Injury VL [8, 16]: 98%
- % Injury VL [8, 17]: 80%
- % Injury VL [8, 18]: 80%
- % Injury BYG [9, 15]: 85%
- % Injury BYG [9, 16]: 90%
- % Injury BYG [9, 17]: 85%
- % Injury BYG [9, 18]: 90%
- % Injury BYG ([10]; Herbicide No.1 0.14 + No.12 3.36 kg/ha + antidote 2.24 kg/ha): 100%
- % Injury BYG ([10]; Herbicide No.1 0.14 + No.12 3.36 kg/ha + antidote 8.96 kg/ha): 100%
- % Injury BYG ([10]; Herbicide No.1 0.56 + No.12 3.36 kg/ha + antidote 2.24 kg/ha): 100%
- % Injury BYG ([10]; Herbicide No.1 0.56 + No.12 3.36 kg/ha + antidote 8.96 kg/ha): 100%
